Source: patent US20240398805A1, “QUINAZOLINE DERIVED COMPOUNDS AS EGFR INHIBITORS AND THEIR USES THEREOF” (ACCUTAR BIOTECHNOLOGY INC., priority 2021, published 2024)

Legend:
Assay type in all cases: cell-based
[1] = test system: A431 cells; assay: Cell growth inhibition (CellTiter-Glo, 3 days) in A431; conditions: Homo sapiens, A-431, 72 h, 3 days after administration
In short: (§1)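 HCC827 cells were plated at 5000 cells/well in RPMI with 10% FBS, and A431 cells at the same density in DMEM with 10% FBS. After overnight attachment, compounds were added at various concentrations. Luminescence was recorded after plates were equilibrated to room temperature and incubated 10 min with reagent.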

[2] = test system: HCC827-YVMA cells (human ERBB2 exon20 insertion mutant A775_G776ins YVMA); assay: Cell growth inhibition (CellTiter-Glo, 3 days) in HCC827-YVMA; conditions: 72 h, 3 days after administration
In short: (§2)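 Growth inhibition used a CellTiter-Glo luminescence read-out after 3 days of compound exposure at various concentrations. Cells were plated the day before at 5000/well in RPMI plus 10% FBS. The lines are HCC827 transduced by lentivirus with codon-optimized EGFR ASV or ERBB2 YVMA exon 20 insertions.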

[3] = test system: HCC827-SVD cells (human EGFR exon 20 insertion mutant D770_N771 insSVD); assay: Cell growth inhibition (CellTiter-Glo, 3 days) in HCC827-SVD; conditions: 72 h, 3 days after administration
In short: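 HCC827 cells carrying lentiviral codon-optimized EGFR D770_N771 insSVD, with endogenous EGFR knocked out by CRISPR (single clone), seeded at 5000 cells/well in RPMI with 10% FBS. Viability read by CellTiter-Glo luminescence.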

[4] = test system: HCC827-ASV cells (human EGFR exon 20 insertion mutant A769_D770insASV); assay: Cell growth inhibition (CellTiter-Glo, 3 days) in HCC827-ASV; conditions: 72 h, 3 days after administration
In short: as §2

[5] = test system: HCC827 cells; assay: Cell growth inhibition (CellTiter-Glo, 3 days) in HCC827; conditions: Homo sapiens, 72 h, 3 days after administration
In short: as §1

| Structure (SMILES) | GI50 [1] [nM] | GI50 [2] [nM] | GI50 [3] [nM] | GI50 [4] [nM] | GI50 [5] [nM] |
| --- | --- | --- | --- | --- | --- |
| C=CC(=O)N1CCC(Nc2cc3c(Nc4ccc(Oc5cc(-c6nc(C)no6)ccn5)cc4F)ncnc3cc2OC)CC1 [Compound 44, 1-(4-((4-((2-fluoro-4-((4-(3-methyl-1,2,4-oxadiazol-5-yl)pyridin-2-yl)oxy)phenyl)amino)-7-methoxyquinazolin-6-yl)amino)piperidin-1-yl)prop-2-en-1-one] | 100 to 300 | < 30 | 30 to 60 | 30 to 60 | 30 to 60 |
| C=CC(=O)N1CCC(Nc2cc3c(Nc4ccc(Oc5ccn(-c6ccc(OC)cn6)n5)cc4F)ncnc3cc2OC)CC1 [Example 59, 1-(4-((4-((2-fluoro-4-((1-(5-methoxypyridin-2-yl)-1H-pyrazol-3-yl)oxy)phenyl)amino)-7-methoxyquinazolin-6-yl)amino)piperidin-1-yl)prop-2-en-1-one] | 100 to 300 | 30 to 60 | 60 to 100 | 30 to 60 | 60 to 100 |
| C=CC(=O)N1CCC(Nc2cc3c(Nc4ccc(Oc5ccn(-c6ccc(C)nc6)n5)cc4F)ncnc3cc2OCC)CC1 [Example 18, 1-(4-((7-ethoxy-4-((2-fluoro-4-((1-(6-methylpyridin-3-yl)-1H-pyrazol-3-yl)oxy)phenyl)amino)quinazolin-6-yl)amino)piperidin-1-yl)prop-2-en-1-one] | 100 to 300 | < 30 | < 30 | < 30 | < 30 |
| C=CC(=O)N1CC[C@@H](Nc2cc3c(Nc4ccc(Oc5ccn(-c6cnc(OC)nc6)n5)cc4F)ncnc3cc2OC)C1 [Compound 9, (R)-1-(3-((4-((2-fluoro-4-((1-(2-methoxypyrimidin-5-yl)-1H-pyrazol-3-yl)oxy)phenyl)amino)-7-methoxyquinazolin-6-yl)amino)pyrrolidin-1-yl)prop-2-en-1-one] | ≥ 1000 | ≥ 1000 | ≥ 1000 | ≥ 1000 | ≥ 1000 |
| C=CC(=O)N1CCC(Nc2cc3c(Nc4ccc(Oc5ccnc(N(C)CCOC)c5)cc4F)ncnc3cc2OC)CC1 [Example 116, 1-(4-((4-((2-fluoro-4-((2-((2-methoxyethyl)(methyl)amino)pyridin-4-yl)oxy)phenyl)amino)-7-methoxyquinazolin-6-yl)amino)piperidin-1-yl)prop-2-en-1-one] | 600 to 1000 | 60 to 100 | 100 to 300 | 100 to 300 | 300 to 600 |
| C=CC(=O)N1CCC(Nc2cc3c(Nc4ccc(Oc5ccnc(-c6ccc(C)cc6)c5)cc4F)ncnc3cc2OC)CC1 [Example 235, 1-(4-((4-((2-fluoro-4-((2-(p-tolyl)pyridin-4-yl)oxy)phenyl)amino)-7-methoxyquinazolin-6-yl)amino)piperidin-1-yl)prop-2-en-1-one] | 600 to 1000 | 60 to 100 | 30 to 60 | 30 to 60 | 60 to 100 |
| C=CC(=O)N1CCC(Nc2cc3c(Nc4ccc(Oc5ccnc(N6CCC[C@@H](OC)C6)c5)cc4)ncnc3cc2OC)CC1 [Example 230, (R)-1-(4-((7-methoxy-4-((4-((2-(3-methoxypiperidin-1-yl)pyridin-4-yl)oxy)phenyl)amino)quinazolin-6-yl)amino)piperidin-1-yl)prop-2-en-1-one] | ≥ 1000 | < 30 | 30 to 60 | < 30 | 300 to 600 |
| C=CC(=O)N1CCC(Nc2cc3c(Nc4ccc(Oc5ccn(-c6ccc(C)cn6)n5)cc4F)ncnc3cc2OC)CC1 [Compound 14] | 60 to 100 | 60 to 100 | 100 to 300 | 100 to 300 | 60 to 100 |
| C=CC(=O)N1CCC(Nc2cc3c(Nc4ccc(Oc5ccnc(N6C[C@H](OC)[C@H](OC)C6)c5)cc4F)ncnc3cc2OC)CC1 [Example 189, 1-(4-((4-((4-((2-((3R,4S)-3,4-dimethoxypyrrolidin-1-yl)pyridin-4-yl)oxy)-2-fluorophenyl)amino)-7-methoxyquinazolin-6-yl)amino)piperidin-1-yl)prop-2-en-1-one] | ≥ 1000 | < 30 | < 30 | < 30 | 300 to 600 |
| C=CC(=O)N1CCC(Nc2cc3c(Nc4ccc(Oc5ccnc(N6CCC[C@@H](OC)C6)c5)cc4F)ncnc3cc2OC)CC1 [Example 164, (R)-1-(4-((4-((2-fluoro-4-((2-(3-methoxypiperidin-1-yl)pyridin-4-yl)oxy)phenyl)amino)-7-methoxyquinazolin-6-yl)amino)piperidin-1-yl)prop-2-en-1-one] | 600 to 1000 | < 30 | < 30 | < 30 | 300 to 600 |
| C=CC(=O)N1CCC(Nc2cc3c(Nc4ccc(Oc5ccnc(NC(C)(C)C)c5)cc4F)ncnc3cc2OC)CC1 [Example 245, 1-(4-((4-((4-((2-(tert-butylamino)pyridin-4-yl)oxy)-2-fluorophenyl)amino)-7-methoxyquinazolin-6-yl)amino)piperidin-1-yl)prop-2-en-1-one] | 300 to 600 | < 30 | 30 to 60 | < 30 | 100 to 300 |
| C=CC(=O)N1CCC(Nc2cc3c(Nc4ccc(Oc5ccnc(-c6nc(C)ns6)c5)cc4F)ncnc3cc2OC)CC1 [Example 192, 1-(4-((4-((2-fluoro-4-((2-(3-methyl-1,2,4-thiadiazol-5-yl)pyridin-4-yl)oxy)phenyl)amino)-7-methoxyquinazolin-6-yl)amino)piperidin-1-yl)prop-2-en-1-one] | 100 to 300 | < 30 | < 30 | < 30 | 60 to 100 |
| C=CC(=O)N1CCC(Nc2cc3c(Nc4ccc(Oc5ccnc(N6CCC[C@@H]6C)c5)cc4F)ncnc3cc2OC)CC1 [Example 252, (S)-1-(4-((4-((2-fluoro-4-((2-(2-methylpyrrolidin-1-yl)pyridin-4-yl)oxy)phenyl)amino)-7-methoxyquinazolin-6-yl)amino)piperidin-1-yl)prop-2-en-1-one] | 600 to 1000 | 30 to 60 | 30 to 60 | 30 to 60 | 100 to 300 |

Further lines, results first:

| GI50 [1] [nM] | GI50 [2] [nM] | GI50 [3] [nM] | GI50 [4] [nM] | GI50 [5] [nM] | Structure (SMILES) |
| --- | --- | --- | --- | --- | --- |
| 60 to 100 | 30 to 60 | 30 to 60 | 30 to 60 | 60 to 100 | C=CC(=O)N1CCC(Nc2cc3c(Nc4ccc(Oc5ccn(-c6ccc(N(C)C)nn6)n5)cc4F)ncnc3cc2OC)CC1 [Example 48, 1-(4-((4-((4-((1-(6-(dimethylamino)pyridazin-3-yl)-1H-pyrazol-3-yl)oxy)-2-fluorophenyl)amino)-7-methoxyquinazolin-6-yl)amino)piperidin-1-yl)prop-2-en-1-one] |
| 100 to 300 | 30 to 60 | 30 to 60 | 30 to 60 | 60 to 100 | C=CC(=O)N1CCC(Nc2cc3c(Nc4ccc(Oc5ccn(-c6ccc(OC)nn6)n5)cc4F)ncnc3cc2OC)CC1 [Example 50, 1-(4-((4-((2-fluoro-4-((1-(6-methoxypyridazin-3-yl)-1H-pyrazol-3-yl)oxy)phenyl)amino)-7-methoxyquinazolin-6-yl)amino)piperidin-1-yl)prop-2-en-1-one] |
| 600 to 1000 | < 30 | < 30 | < 30 | 30 to 60 | C=CC(=O)N1CCC(Nc2cc3c(Nc4ccc(Oc5ccn(-c6ccc(C)nc6F)n5)cc4F)ncnc3cc2OC)CC1 [Example 89, 1-(4-((4-((2-fluoro-4-((1-(2-fluoro-6-methylpyridin-3-yl)-1H-pyrazol-3-yl)oxy)phenyl)amino)-7-methoxyquinazolin-6-yl)amino)piperidin-1-yl)prop-2-en-1-one] |
| 100 to 300 | < 30 | < 30 | < 30 | 30 to 60 | C=CC(=O)N1CCC(Nc2cc3c(Nc4ccc(Oc5nc(-c6cnc(OC)nc6)cs5)cc4F)ncnc3cc2OC)CC1 [Example 53, 1-(4-((4-((2-fluoro-4-((4-(2-methoxypyrimidin-5-yl)thiazol-2-yl)oxy)phenyl)amino)-7-methoxyquinazolin-6-yl)amino)piperidin-1-yl)prop-2-en-1-one] |
| ≥ 1000 | 30 to 60 | 100 to 300 | 30 to 60 | 30 to 60 | C=CC(=O)N1CCC(Nc2cc3c(Nc4ccc(Oc5nc(-c6cnc(C)c(F)c6)cs5)cc4F)ncnc3cc2OC)CC1 [Example 94, 1-(4-((4-((2-fluoro-4-((4-(5-fluoro-6-methylpyridin-3-yl)thiazol-2-yl)oxy)phenyl)amino)-7-methoxyquinazolin-6-yl)amino)piperidin-1-yl)prop-2-en-1-one] |
| ≥ 1000 | 60 to 100 | 60 to 100 | 60 to 100 | 100 to 300 | C=CC(=O)N1CCC(Nc2cc3c(Nc4ccc(Oc5ccnc(N6CC(N(C)C)C6)c5)cc4F)ncnc3cc2OC)CC1 [Example 147, 1-(4-((4-((4-((2-(3-(dimethylamino)azetidin-1-yl)pyridin-4-yl)oxy)-2-fluorophenyl)amino)-7-methoxyquinazolin-6-yl)amino)piperidin-1-yl)prop-2-en-1-one] |
| ≥ 1000 | ≥ 1000 | 300 to 600 | ≥ 1000 | ≥ 1000 | C=CC(=O)Nc1cc2c(Nc3ccc(Oc4ccnc(-c5nc(C)cs5)c4)cc3F)ncnc2cc1OCC [Example 168, N-(7-ethoxy-4-((2-fluoro-4-((2-(4-methylthiazol-2-yl)pyridin-4-yl)oxy)phenyl)amino)quinazolin-6-yl)acrylamide] |
